In assay [1] the target is T1, BaF3-FLT3-ITD-F691L (Homo sapiens, UniProt P36888, INS600HVDFREYEYD/F691L, cells depend on it).
T1 sequence (P36888 with tags, fused parts or gaps INS600HVDFREYEYD/F691L): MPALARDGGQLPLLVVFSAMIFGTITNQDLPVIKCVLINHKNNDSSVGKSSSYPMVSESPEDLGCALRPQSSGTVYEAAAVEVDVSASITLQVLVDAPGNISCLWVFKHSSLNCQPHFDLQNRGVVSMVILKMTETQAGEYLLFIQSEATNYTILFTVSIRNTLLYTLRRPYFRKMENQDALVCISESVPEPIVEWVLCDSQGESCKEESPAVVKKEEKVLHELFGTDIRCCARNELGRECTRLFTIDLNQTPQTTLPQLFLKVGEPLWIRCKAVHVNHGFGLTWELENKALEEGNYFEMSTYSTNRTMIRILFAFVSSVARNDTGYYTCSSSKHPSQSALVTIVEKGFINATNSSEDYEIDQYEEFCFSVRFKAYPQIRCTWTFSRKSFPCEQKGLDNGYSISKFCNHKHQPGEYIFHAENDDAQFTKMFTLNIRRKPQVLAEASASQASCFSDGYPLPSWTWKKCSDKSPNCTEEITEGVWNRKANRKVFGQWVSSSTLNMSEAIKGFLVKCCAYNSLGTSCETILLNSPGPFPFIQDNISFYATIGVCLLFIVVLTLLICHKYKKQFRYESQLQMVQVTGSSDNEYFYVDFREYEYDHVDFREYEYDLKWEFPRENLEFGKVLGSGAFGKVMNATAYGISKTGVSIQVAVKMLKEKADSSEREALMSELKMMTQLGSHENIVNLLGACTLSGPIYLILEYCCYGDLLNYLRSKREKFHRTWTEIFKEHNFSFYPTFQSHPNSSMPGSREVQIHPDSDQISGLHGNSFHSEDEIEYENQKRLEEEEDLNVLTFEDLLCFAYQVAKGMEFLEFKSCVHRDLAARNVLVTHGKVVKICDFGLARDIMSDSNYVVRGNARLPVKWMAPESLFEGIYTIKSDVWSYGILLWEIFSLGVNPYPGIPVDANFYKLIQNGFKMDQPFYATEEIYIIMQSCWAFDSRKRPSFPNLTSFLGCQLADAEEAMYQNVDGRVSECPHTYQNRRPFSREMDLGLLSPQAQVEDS
The assay can be described thus: CTB viability assay CS0047, BaF3-FLT3-ITD-F691L. In kind it is cell-based, murine. The conditions noted are these: CellTiter Blue viability, 72 hours. An excerpt: Gene constructs containing the human FLT3 sequences FLT3-ITD, FLT3-ITD-F691L, FLT3-ITD-D835V and FLT3-D835V were synthesized by reverse translation of the human protein sequences, with codons optimized for mammalian expression. Sequence of the internal tandem duplication (ITD) was based on the MV4-11 ITD sequence. Synthetic DNA constructs were cloned into the pMSCV puro retroviral vector (Clontech) and transfected into the EcoPack2-293 packaging cell line (Clontech) to generate retroviruses that contain the different FLT3 constructs. Viruses were transduced into the IL-3-dependent, murine […] cell line, Ba/F3, and selected for puromycin resistance and IL-3 independence. All cell lines were cloned by limiting dilution and clones were used for all subsequent cell assays. Overexpression of the FLT3 mutants in the Ba/F3 cells results in constitutive phosphorylation of the exogenous FLT3 protein, which is required for IL-3 independence.
Cell lines were serum starved overnight in media containing 0.5% FBS, plated at 15,000 cells/well in 96-well white-walled tissue culture plates, and 3-fold serial dilutions of test compounds of Formula I were added for 72 hours at 37° C. CellTiter Blue (CTB, Promega) was added and incubated for an additional 3 hours at 37° C. Fluorescence was read at 560 nm excitation, 590 nm emission. Wells with CTB+media only were used for background subtraction, and the fluorescence of compound-treated cells was normalized to the fluorescence of DMSO-treated cells. IC50s were determined using Igor Pro software. All compounds are assayed in duplicate cell plates.
A general note: Resazurin is reduced to fluorescent resorufin, in cell work by metabolically active cells.

Assay [2] addresses T2, BaF3-FLT3-ITD-D835V (Homo sapiens, UniProt P36888, INS600HVDFREYEYD/D835V, cells depend on it).
T2 sequence (P36888 with tags, fused parts or gaps INS600HVDFREYEYD/D835V): T1 sequence (P36888 with tags, fused parts or gaps INS600HVDFREYEYD/F691L) with L701F, D845V
In words: CTB viability assay CS0048, BaF3-FLT3-ITD-D835V. In kind it is cell-based, murine. The conditions noted are these: CellTiter Blue viability, 72 hours. The method in brief:
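Murine Ba/F3 cells made IL-3-independent by retroviral human FLT3-ITD (MV4-11 ITD), ±F691L or D835V, serum-starved overnight in 0.5% FBS. 3-fold compound dilutions applied 72 h at 37° C; viability by CellTiter Blue fluorescence (ex 560/em 590 nm), normalized to DMSO, IC50 from duplicate plates.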

Setting [3] is: Table 4, compounds from WO 2011/022473, read-out: Cell Assay: CS0047: BaF3-FLT3-ITD-F691L CTB: IC50.
The mark [4] stands for this setting: Table 4, compounds from WO 2011/022473, read-out: Cell Assay: CS0048: BaF3-FLT3-ITD-D835V CTB: IC50.
[5] abbreviates: Table 3, read-out: Cell Assay: CS0047: BaF3-FLT3-ITD-F691L CTB: IC50.
Setting [6] is: Table 3, read-out: Cell Assay: CS0048: BaF3-FLT3-ITD-D835V CTB: IC50.
Setting [7] is: BaF3-FLT3-ITD-F691L cells, read-out: Cell Assay: CS0047:BaF3-FLT3-ITD-F691L CTB:IC50.
Setting [8] is: BaF3-FLT3-ITD-D835V cells, read-out: Cell Assay: CS0048: BaF3-FLT3-ITD-D835V CTB:IC50.

Structures are written as SMILES. Positions count from the first letter of the chain named. Where two headings read alike, the source gives them in different places.

`CC(C)(C)c1cc(NC(=O)Nc2ccc(-c3cnc(NC4CCOCC4)nc3)cn2)no1` [reference compound]: the GI50 in assay [1] (setting [3]) is 110 nM; in assay [2] (setting [4]), 673 nM.
On to `CCNc1ccc(-c2ccc(CC(=O)Nc3cc(C(C)(C)C)on3)cc2)cn1` [reference compound], for which the GI50 in assay [1] (setting [3]) is 45.4 nM; in assay [2] (setting [4]), 94.2 nM.
Take `Cn1cc(Nc2ncc(-c3ccc(CC(=O)Nc4cc(C5(C(F)(F)F)CC5)on4)c(F)c3)cn2)cn1`: the GI50 came to 0.189 nM in assay [1] (setting [5]) and 0.259 nM in assay [2] (setting [6]).
In the case of `CNc1ccc(-c2ccc(CC(=O)Nc3cc(C(C)(C)C)on3)cc2)cn1` [reference compound], the GI50 in assay [1] (setting [3]) was determined as 43.2 nM; in assay [2] (setting [4]) it was 92 nM.
As for `O=C(Cc1ccc(-c2cnc(Nc3ccccc3)nc2)cc1F)Nc1cc(C2(C(F)(F)F)CC2)on1`, the GI50 was found to be 0.728 nM in assay [1] (setting [5]) and 0.772 nM in assay [2] (setting [6]).
On to `CC(C)(c1cc(NC(=O)Cc2ccc(-c3ccc(NCCN4CCOCC4)nc3)cc2)no1)C(F)(F)F` [reference compound], for which the GI50 stood at 73.9 nM in assay [1] (setting [3]) and 145 nM in assay [2] (setting [4]).
As for `O=C(O)Cn1cc(Nc2ncc(-c3ccc(CC(=O)Nc4cc(C5(C(F)(F)F)CC5)on4)c(F)c3)cn2)cn1` [P-078, 2-[4-[[5-[3-fluoro-4-[2-oxo-2-[[5-[1-(trifluoromethyl)cyclopropyl]isoxazol-3-yl]amino]ethyl]phenyl]pyrimidin-2-yl]amino]pyrazol-1-yl]acetic acid], the values for the GI50 in assay [1] (setting [7]) and in assay [2] (setting [8]) were 10 to 50 nM and 50 to 100 nM, respectively.
On to `CC(C)(C)c1cc(NC(=O)Nc2ccc(-c3cnc(NC4CC4)nc3)cn2)no1` [reference compound], for which the GI50 in assay [1] (setting [3]) worked out at 77.8 nM; in assay [2] (setting [4]) it was 585 nM.
As for `Cc1nn(C)c(C)c1Nc1ncc(-c2ccc(CC(=O)Nc3cc(C4(C(F)(F)F)CC4)on3)c(F)c2)cn1` [P-029, 2-[2-fluoro-4-[2-[(l,3,5-trimethylpyrazol-4-yl)amino]pyrimidin-5-yl]phenyl]-N-[5-[1-(trifluoromethyl)cyclopropyl]isoxazol-3-yl]acetamide], the GI50 in assay [1] (setting [7]) and in assay [2] (setting [8]) was 10 to 50 nM in each case.
